This data set is described as follows: Clearance in rat. It counts as ADME, organism-based. The conditions noted are these: in vivo.

In general, clearance refers to a measure of how efficiently the substance is removed, as volume per time. Compound `O=C(NC1CCN(Cc2ccn(-c3ccc(C(F)(F)F)cc3)c2)CC1)N[C@H](CO)c1ccccc1` gave a clearance of 9.24 L/h/kg.
